Measurements published in PMC6152064 (Molecules : A Journal of Synthetic Chemistry and Natural …, 2017).
“And” between values parts separate entries of the source, which are not always exact repeats. Equal values may be shown once. Values belong to the compound of their own block, whether it stands above or below them.

What was measured:
hGal3 = settings: cited from earlier work
hGal1 (human galectin-1) = hGal1 (human galectin-1) (Homo sapiens, UniProt P09382); test: Isothermal titration calorimetry (ITC); settings: 298 K, PBS
Method: (§5) The experiments were carried out at 298 K and in PBS. […] The thermograms were extracted, processed and subjected to nonlinear regression using the built-in software based on Origin (OriginLab, Northampton, MA, USA) to determine the respective binding constants.

hGal8^CTD [1] = molecular target: T1, hGal8^CTD (Homo sapiens, UniProt O00214); test: Isothermal titration calorimetry (ITC)
T1 sequence (O00214 187-317 limits assumed): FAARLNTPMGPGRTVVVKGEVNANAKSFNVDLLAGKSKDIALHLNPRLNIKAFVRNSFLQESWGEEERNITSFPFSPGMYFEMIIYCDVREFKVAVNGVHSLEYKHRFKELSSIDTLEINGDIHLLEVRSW
Method: as §5

hGal7 (human galectin-7) [2] = molecular target: T2, hGal7 (human galectin-7) (Homo sapiens, UniProt P47929); test: 2D NMR lineshape analysis (TITAN), two-state binding model; set-up: The constructs encoding the open reading frames of hGal1, hGal7 and hGal8 with a hexahistidine tag at the N-termini; hexahistidine tag (N); made in house; host or cells: Escherichia coli BL21 (DE3); settings: 298 K
Method: (§1) HSQC spectra were also analysed by the TITAN program using a two-state binding model. […] Eight peaks with significant CSPs were chosen to be fitted for each titration experiment. Error analysis was performed by the bootstrap resampling module in the program with 100 resampled spectra.

hGal7 (human galectin-7) [3] = molecular target: T2, hGal7 (human galectin-7); test: Intrinsic tryptophan fluorescence titration (SVD analysis); assay type: binding; set-up: The constructs encoding the open reading frames of hGal1, hGal7 and hGal8 with a hexahistidine tag at the N-termini; hexahistidine tag (N); made in house; host or cells: Escherichia coli BL21 (DE3); settings: Lactose Kd, 298 K, PBS, 10 μM protein
Description: (§2) The samples were subjected to intrinsic fluorescence measurements using a 3 mm quartz cell (Hellma) and a fluorimeter (Jasco FP-8500, Hachioji, Tokyo, Japan). […] The resulting titration data were processed by SVD analysis, as described previously.

[4] = molecular target: T3, hGal8^CTD (C-terminal domain of human galectin-8) (Homo sapiens, UniProt O00214); test: 2D NMR lineshape analysis (TITAN), two-state binding model; settings: 298 K
T3 construct: the N-terminal and C-terminal domains of galectin-8 (hGal8^NTD and hGal8^CTD, respectively); made in house; host or cells: Escherichia coli BL21 (DE3)
T3 sequence (O00214 187-317 limits assumed): T1 sequence (O00214 187-317 limits assumed)
Method: as §1

[5] = molecular target: T4, hGal8^NTD (N-terminal domain of human galectin-8) (Homo sapiens, UniProt O00214); test: as above; settings: Lactose Kd, 298 K
T4 construct: hexahistidine tag (N); made in house; host or cells: Escherichia coli BL21 (DE3)
T4 sequence (O00214 1-155 limits assumed): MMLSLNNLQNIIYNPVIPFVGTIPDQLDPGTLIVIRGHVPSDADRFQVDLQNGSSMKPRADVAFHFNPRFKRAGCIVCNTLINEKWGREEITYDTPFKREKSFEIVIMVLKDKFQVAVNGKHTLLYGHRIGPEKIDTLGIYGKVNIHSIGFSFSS
Method: as §1

[6] = molecular target: T3, hGal8^CTD (C-terminal domain of human galectin-8); test: NMR titration, global fit of chemical shift perturbations (CSP); assay type: binding; settings: 298 K, global fit of CSPs > 2σ
[7] = molecular target: T5, hGal8^full(CTD) (CTD of full-length galectin-8) (Homo sapiens, UniProt O00214); test: as above; settings: Lactose Kd, CTD of full-length hGal8 (tandem-repeat, 17-residue linker), 298 K
T5 sequence (O00214 1-317): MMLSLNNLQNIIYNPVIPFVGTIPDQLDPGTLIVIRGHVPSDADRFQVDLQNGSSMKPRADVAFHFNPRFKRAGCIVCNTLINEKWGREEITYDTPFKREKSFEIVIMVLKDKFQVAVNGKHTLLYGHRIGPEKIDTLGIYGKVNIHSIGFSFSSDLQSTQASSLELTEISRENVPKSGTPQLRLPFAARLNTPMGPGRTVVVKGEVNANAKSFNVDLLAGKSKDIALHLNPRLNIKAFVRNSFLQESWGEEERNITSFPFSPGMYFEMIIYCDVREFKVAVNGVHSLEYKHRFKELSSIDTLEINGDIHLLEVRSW

hGal8^NTD [8] = molecular target: T6, hGal8^NTD (Homo sapiens, UniProt O00214); test: Intrinsic tryptophan fluorescence titration (SVD analysis); assay type: binding; set-up: hexahistidine tag (N); made in house; host or cells: Escherichia coli BL21 (DE3); settings: 298 K, PBS, 10 μM protein
T6 sequence (O00214 1-155 limits assumed): T4 sequence (O00214 1-155 limits assumed)
Description: as §2

[9] = molecular target: T4, hGal8^NTD (N-terminal domain of human galectin-8); test: NMR titration, global fit of chemical shift perturbations (CSP); assay type: binding; settings: 298 K, global fit of CSPs > 2σ
hGal8^NTD [10] = molecular target: T6, hGal8^NTD; test: Bio-layer interferometry (BLI), steady-state fit; assay type: binding; set-up: hexahistidine tag (N); made in house; host or cells: Escherichia coli BL21 (DE3); settings: biotinylated galectin on SSA biosensor
Method: (§3) BLI experiments were carried out using an Octet Red96 system (FortéBio, Menlo Park, CA, USA), as described previously.

hGal7 (human galectin-7) [11] = molecular target: T2, hGal7 (human galectin-7); test: Bio-layer interferometry (BLI), steady-state fit; assay type: binding; set-up: The constructs encoding the open reading frames of hGal1, hGal7 and hGal8 with a hexahistidine tag at the N-termini; hexahistidine tag (N); made in house; host or cells: Escherichia coli BL21 (DE3); settings: biotinylated galectin on SSA biosensor
Method: as §3

hGal8^CTD [12] = molecular target: T1, hGal8^CTD; test: Intrinsic tryptophan fluorescence titration (SVD analysis); assay type: binding; set-up: hGal8 N-terminal domain (hGal8^NTD) and C-terminal domain (hGal8^CTD); made in house; host or cells: Escherichia coli BL21 (DE3); settings: 298 K, PBS, 10 μM protein
Description: as §2

[13] = molecular target: glutathione-S-transferase (GST)-fused hGal8^NTD; set-up: method as in PMID 12851289; settings: read-out: lactose Kd (SPR); cited from earlier work
hGal8^NTD [14] = molecular target: T6, hGal8^NTD; test: Isothermal titration calorimetry (ITC)
Method: as §5

hGal7 = molecular target: T7, hGal7 (Homo sapiens, UniProt P47929); test: Lactose binding affinity, summary over NMR, intrinsic fluorescence, BLI and ITC
T7 construct: The constructs encoding the open reading frames of hGal1, hGal7 and hGal8 with a hexahistidine tag at the N-termini; hexahistidine (N); made in house; host or cells: Escherichia coli BL21 (DE3)
Method: as §2, §3, §1

hGal8^CTD [15] = molecular target: T1, hGal8^CTD; test: Bio-layer interferometry (BLI), steady-state fit; assay type: binding; set-up: hGal8 N-terminal domain (hGal8^NTD) and C-terminal domain (hGal8^CTD); made in house; host or cells: Escherichia coli BL21 (DE3); settings: biotinylated galectin on SSA biosensor
Method: as §3

hGal8^CTD [16] = molecular target: T1, hGal8^CTD; test: Lactose binding affinity, summary over NMR, intrinsic fluorescence, BLI and ITC; set-up: hGal8 N-terminal domain (hGal8^NTD) and C-terminal domain (hGal8^CTD); made in house; host or cells: Escherichia coli BL21 (DE3); settings: summary over the biophysical tools
Method: as §2, §3, §1

[17] = molecular target: T8, hGal8^full(NTD) (NTD of full-length galectin-8) (Homo sapiens, UniProt O00214); test: 2D NMR lineshape analysis (TITAN), two-state binding model; set-up: A full-length hGal8 (hGal8^full) variant encompassing a 17-residue linker was used; hexahistidine tag (N); made in house; host or cells: Escherichia coli BL21 (DE3); settings: NTD of full-length hGal8 (G127), 298 K
T8 sequence (O00214 1-317): T5 sequence (O00214 1-317)
Method: (§4) The advantage of using NMR titration to determine Kd values is the ability to simultaneously characterise microscopy binding events at different binding sites. […] The same lineshape analysis was performed for hGal8^full titration experiments, which yielded similar Kd values to those derived from CSP data (Figure S2; Table 1).
as §1

[18] = molecular target: T5, hGal8^full(CTD) (CTD of full-length galectin-8); test: as above; set-up: A full-length hGal8 (hGal8^full) variant encompassing a 17-residue linker was used; hexahistidine tag (N); made in house; host or cells: Escherichia coli BL21 (DE3); settings: CTD of full-length hGal8 (N215), 298 K
Method: as §4, §1

hGal7 (human galectin-7) [19] = molecular target: T2, hGal7 (human galectin-7); test: Isothermal titration calorimetry (ITC)
Method: as §5

GST-fused hGal8^CTD = molecular target: GST-fused hGal8^CTD; set-up: method as in PMID 12851289; settings: read-out: lactose Kd (SPR); cited from earlier work
[20] = molecular target: GST-fused tandem-repeat construct (hGal8); set-up: method as in PMID 12851289; settings: read-out: apparent lactose Kd (SPR); cited from earlier work
[21] = molecular target: T8, hGal8^full(NTD) (NTD of full-length galectin-8); test: NMR titration, global fit of chemical shift perturbations (CSP); settings: Lactose Kd, NTD of full-length hGal8 (tandem-repeat, 17-residue linker), 298 K
hGal8^NTD [22] = molecular target: T6, hGal8^NTD; test: Lactose binding affinity, summary over NMR, intrinsic fluorescence, BLI and ITC; set-up: hexahistidine tag (N); made in house; host or cells: Escherichia coli BL21 (DE3); settings: summary over the biophysical tools
Method: as §2, §3, §1

hGal7 (human galectin-7) [23] = molecular target: T2, hGal7 (human galectin-7); test: NMR titration, global fit of chemical shift perturbations (CSP); assay type: binding; set-up: The constructs encoding the open reading frames of hGal1, hGal7 and hGal8 with a hexahistidine tag at the N-termini; hexahistidine tag (N); made in house; host or cells: Escherichia coli BL21 (DE3); settings: 298 K, global fit of CSPs > 2σ

T2 sequence (P47929 whole entry): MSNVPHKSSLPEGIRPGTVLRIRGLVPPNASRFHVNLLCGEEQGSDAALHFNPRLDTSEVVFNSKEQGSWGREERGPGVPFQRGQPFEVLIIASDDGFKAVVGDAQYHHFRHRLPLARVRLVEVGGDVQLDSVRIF
hGal1 (human galectin-1), sequence (P09382 whole entry): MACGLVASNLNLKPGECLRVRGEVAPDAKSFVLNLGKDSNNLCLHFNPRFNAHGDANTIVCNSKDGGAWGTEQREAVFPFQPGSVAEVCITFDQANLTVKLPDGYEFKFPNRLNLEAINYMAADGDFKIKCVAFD
T7 sequence (P47929 whole entry): as the sequence (P47929 whole entry) above

Compound: OC[C@H]1O[C@@H](S[C@@H]2O[C@H](CO)[C@H](O)[C@H](n3cc(-c4cccc(F)c4)nn3)[C@H]2O)[C@H](O)[C@@H](n2cc(-c3cccc(F)c3)nn2)[C@H]1O [TD139]
- Kd (hGal3): low nanomolar

- N (ITC OneSites model) (hGal1 (human galectin-1)): 1.51 ± 0.113 sites
- ΔH (ITC OneSites model) (hGal1 (human galectin-1)): -5.772 ± 0.4897 kcal/mol
- ΔS (ITC OneSites model) (hGal1 (human galectin-1)): -2.53 cal/mol/deg
- Kd (hGal8^CTD [1]): 893 ± 25 µM
- K (binding constant, ITC OneSites model) (hGal8^CTD [1]; hGal8^CTD, 298 K, PBS): 1.12E3 ± 31.0 M-1
- N (ITC OneSites model) (hGal8^CTD [1]; hGal8^CTD, 298 K, PBS): 1.68 ± 0.212 sites
- ΔH (ITC OneSites model) (hGal8^CTD [1]; hGal8^CTD, 298 K, PBS): -3.045 ± 0.4012 kcal/mol
- ΔS (ITC OneSites model) (hGal8^CTD [1]; hGal8^CTD, 298 K, PBS): 3.74 cal/mol/deg
- Kd (hGal7 (human galectin-7) [2]): 352 ± 9 µM
- Kd (hGal7 (human galectin-7) [3]): 340 µM and 331 µM
- Kd [4]: 950 ± 10 µM
- Kd [5]: 86.3 µM and 86 µM
- Kd [6]: 664 ± 59 µM
- Kd [7]: ~1500 µM and 1480 µM
- Kd (hGal8^NTD [8]): 88 ± 2 µM
- Kd [9]: 84 ± 9 µM
- Kd (hGal8^NTD [10]): 89 ± 26 µM
- Kd (hGal7 (human galectin-7) [11]): 347 ± 180 µM
- Kd (hGal8^CTD [12]): 772 ± 56 µM
- Kd (hGal8^NTD [14]): 93 ± 1 µM
- K (binding constant, ITC OneSites model) (hGal8^NTD [14]; hGal8^NTD, 298 K, PBS): 1.08E4 ± 121 M-1
- N (ITC OneSites model) (hGal8^NTD [14]; hGal8^NTD, 298 K, PBS): 0.818 ± 0.0154 sites
- ΔH (ITC OneSites model) (hGal8^NTD [14]; hGal8^NTD, 298 K, PBS): -1.466E4 ± 302.2 cal/mol
- ΔS (ITC OneSites model) (hGal8^NTD [14]; hGal8^NTD, 298 K, PBS): -30.7 cal/mol/deg
- Kd (hGal7): ~350 µM
- Kd (hGal8^CTD [15]): 873 ± 526 µM
- Kd (hGal8^CTD [16]): 664 to 950 µM and 800 µM
- Kd [17]: 167 ± 7 µM
- Kd [18]: 1186 ± 11 µM
- Kd (hGal7 (human galectin-7) [19]): 323 µM
- N (ITC OneSites model) (hGal7 (human galectin-7) [19]; hGal7, 298 K, PBS): 0.0702 ± 0.00475 sites
- ΔH (ITC OneSites model) (hGal7 (human galectin-7) [19]; hGal7, 298 K, PBS): -1.883E4 ± 1326 cal/mol
- ΔS (ITC OneSites model) (hGal7 (human galectin-7) [19]; hGal7, 298 K, PBS): -47.2 cal/mol/deg
- Kd [21]: ~130 µM and 128 µM
- Kd (hGal8^NTD [22]): 84 to 93 µM and 80 µM
- Kd (hGal7 (human galectin-7) [23]): 397 ± 14 µM
Compound: OC[C@H]1O[C@@H](O[C@H]2[C@H](O)[C@@H](O)C(O)O[C@@H]2CO)[C@H](O)[C@@H](O)[C@H]1O (mixture of isomers) [Lactose, lactose]
- Kd [13]: 80 µM
- Kd (GST-fused hGal8^CTD): 440 µM
- Kd [20]: 140 µM
